Data on five cell lines can be found in the supplement of paper PMC10307832.

Holding throughout (experiment): relative viability (nuclei count vs DMSO), 5 days (fraction); higher = more cells survive
Compound in the experiment “Zebularine + Phenformin”: O=c1ncccn1[C@@H]1O[C@H](CO)[C@@H](O)[C@H]1O [Zebularine] + N=C(N)NC(=N)NCCc1ccccc1 [Phenformin] (partner 250 µM)
The procedure, abridged: (§1)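 Relative viability equals treated-well nuclei counts divided by vehicle-well nuclei counts. Counts came from 4× images of lung cancer cell lines grown in 1536-well plates for 5 days after pin-tool dosing on the day after seeding. Dosing used one drug alone or a fixed anchor-drug dose plus five library-drug doses (not always all listed) in √10 steps, and values are medians of duplicate plates.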

Compound in the experiment “Zebularine + Alpelisib”: O=c1ncccn1[C@@H]1O[C@H](CO)[C@@H](O)[C@H]1O [Zebularine] + Cc1nc(NC(=O)N2CCC[C@H]2C(N)=O)sc1-c1ccnc(C(C)(C)C(F)(F)F)c1 [Alpelisib] (partner 2 µM)
The procedure, abridged:
as §1

Compound in the experiment “Zebularine + Palbociclib”: O=c1ncccn1[C@@H]1O[C@H](CO)[C@@H](O)[C@H]1O [Zebularine] + CC(=O)c1c(C)c2cnc(Nc3ccc(N4CCNCC4)cn3)nc2n(C2CCCC2)c1=O [Palbociclib] (partner 0.5 µM)
In outline: as §1

Compound in the experiment “Zebularine + Tozasertib”: O=c1ncccn1[C@@H]1O[C@H](CO)[C@@H](O)[C@H]1O [Zebularine] + Cc1cc(Nc2cc(N3CCN(C)CC3)nc(Sc3ccc(NC(=O)C4CC4)cc3)n2)n[nH]1 [Tozasertib] (partner 0.1 µM)
In outline:
as §1

On to CAL-12T, for which the relative viability in the experiment with Zebularine + Phenformin (first compound 1 µM) was 0.569; in the experiment with Zebularine + Phenformin (first compound 3.162 µM), 0.464; with Zebularine + Phenformin (first compound 10 µM) it was 0.535; with Zebularine + Phenformin (first compound 31.62 µM), 0.583; in the experiment with Zebularine + Phenformin (first compound 100 µM), 0.391; with Zebularine + Alpelisib (first compound 1 µM), 1.49. Besides, the relative viability was determined as 1.07 with Zebularine + Alpelisib (first compound 3.162 µM); 1.28 with Zebularine + Alpelisib (first compound 31.62 µM); 1.1 in the experiment with Zebularine + Alpelisib (first compound 100 µM); 0.474 in the experiment with Zebularine + Palbociclib (first compound 1 µM); 0.423 with Zebularine + Palbociclib (first compound 3.162 µM); 0.409 with Zebularine + Palbociclib (first compound 10 µM). Also, the relative viability with Zebularine + Palbociclib (first compound 31.62 µM) came out at 0.557; in the experiment with Zebularine + Palbociclib (first compound 100 µM), 0.353; with Zebularine + Tozasertib (first compound 1 µM), 0.379; with Zebularine + Tozasertib (first compound 3.162 µM), 0.369; with Zebularine + Tozasertib (first compound 10 µM), 0.241; with Zebularine + Tozasertib (first compound 31.62 µM) it was 0.379. For the same cell line, the relative viability with Zebularine + Tozasertib (first compound 100 µM) is 0.247.

As to COR-L23, the relative viability with Zebularine + Phenformin (first compound 1 µM) was found to be 0.468; in the experiment with Zebularine + Phenformin (first compound 3.162 µM), 0.438; with Zebularine + Phenformin (first compound 10 µM), 0.312; with Zebularine + Phenformin (first compound 31.62 µM) it was 0.284; with Zebularine + Phenformin (first compound 100 µM), 0.165; in the experiment with Zebularine + Alpelisib (first compound 1 µM), 0.872. The relative viability with Zebularine + Alpelisib (first compound 3.162 µM) was determined as 0.926; in the experiment with Zebularine + Alpelisib (first compound 10 µM), 0.431; with Zebularine + Alpelisib (first compound 31.62 µM), 0.361; in the experiment with Zebularine + Alpelisib (first compound 100 µM), 0.265; with Zebularine + Palbociclib (first compound 1 µM), 0.314; with Zebularine + Palbociclib (first compound 3.162 µM) it was 0.286. Moreover, the relative viability with Zebularine + Palbociclib (first compound 10 µM) was 0.176; in the experiment with Zebularine + Palbociclib (first compound 31.62 µM) it was 0.224; in the experiment with Zebularine + Palbociclib (first compound 100 µM) it was 0.146; with Zebularine + Tozasertib (first compound 1 µM), 0.216; in the experiment with Zebularine + Tozasertib (first compound 3.162 µM) it was 0.263; with Zebularine + Tozasertib (first compound 10 µM), 0.186. In addition, the relative viability with Zebularine + Tozasertib (first compound 31.62 µM) is 0.181; in the experiment with Zebularine + Tozasertib (first compound 100 µM), 0.119.

In the case of COR-L 105, the relative viability with Zebularine + Phenformin (first compound 1 µM) was found to be 0.581; with Zebularine + Phenformin (first compound 3.162 µM) it was 0.488; with Zebularine + Phenformin (first compound 10 µM) it was 0.314; with Zebularine + Phenformin (first compound 31.62 µM), 0.575; with Zebularine + Phenformin (first compound 100 µM) it was 0.53; with Zebularine + Alpelisib (first compound 1 µM) it was 1.24. Moreover, the relative viability in the experiment with Zebularine + Alpelisib (first compound 3.162 µM) turned out to be 0.952; with Zebularine + Alpelisib (first compound 10 µM), 0.807; in the experiment with Zebularine + Alpelisib (first compound 31.62 µM) it was 0.96; in the experiment with Zebularine + Alpelisib (first compound 100 µM), 1.1; with Zebularine + Palbociclib (first compound 1 µM) it was 0.515; with Zebularine + Palbociclib (first compound 3.162 µM) it was 0.373. Moreover, the relative viability worked out at 0.416 with Zebularine + Palbociclib (first compound 10 µM); 0.406 in the experiment with Zebularine + Palbociclib (first compound 31.62 µM); 0.43 with Zebularine + Palbociclib (first compound 100 µM); 0.316 with Zebularine + Tozasertib (first compound 1 µM); 0.285 with Zebularine + Tozasertib (first compound 3.162 µM); 0.345 with Zebularine + Tozasertib (first compound 10 µM). In addition, the relative viability was 0.367 with Zebularine + Tozasertib (first compound 31.62 µM) and 0.319 in the experiment with Zebularine + Tozasertib (first compound 100 µM).

Take Calu-6: the relative viability stood at 1 with Zebularine + Alpelisib (first compound 1 µM); 0.929 with Zebularine + Alpelisib (first compound 3.162 µM); 0.869 in the experiment with Zebularine + Alpelisib (first compound 10 µM); 0.786 in the experiment with Zebularine + Alpelisib (first compound 31.62 µM); 0.302 in the experiment with Zebularine + Alpelisib (first compound 100 µM).

Take ChaGo-K-1: the relative viability with Zebularine + Phenformin (first compound 1 µM) was 0.51; with Zebularine + Phenformin (first compound 3.162 µM), 0.458; with Zebularine + Phenformin (first compound 10 µM), 0.278; with Zebularine + Phenformin (first compound 31.62 µM), 0.25; with Zebularine + Phenformin (first compound 100 µM), 0.204; with Zebularine + Palbociclib (first compound 1 µM), 0.919. For the same cell line, the relative viability in the experiment with Zebularine + Palbociclib (first compound 3.162 µM) came out at 0.737; in the experiment with Zebularine + Palbociclib (first compound 10 µM) it was 0.345; with Zebularine + Palbociclib (first compound 31.62 µM) it was 0.198; in the experiment with Zebularine + Palbociclib (first compound 100 µM), 0.217; with Zebularine + Tozasertib (first compound 1 µM) it was 0.22; with Zebularine + Tozasertib (first compound 3.162 µM), 0.208. For the same cell line, the relative viability with Zebularine + Tozasertib (first compound 10 µM) was determined as 0.211; in the experiment with Zebularine + Tozasertib (first compound 31.62 µM) it was 0.172; with Zebularine + Tozasertib (first compound 100 µM), 0.195.
